Assay [1] deals with K. oxytoca UFR21 (TEM-1, CTX-M-15, OXA-48). Nature of the assay: microbe, parasite or virus in culture. It counts as cell-based. The following applies: for MIC: Klebsiella oxytoca, 18 h, read-out: MIC compounds of the invention alone.
In assay [2] the test system is K. pneumoniae UFR68 (TEM-1, SHV-11, CTX-M-15, KPC-3). Nature of the assay: microbe, parasite or virus in culture. It counts as cell-based. The following applies: for MIC: Klebsiella pneumoniae, 18 h, read-out: MIC compounds of the invention alone.
Assay [3] concerns the target T1, TEM-1 (Escherichia coli, UniProt P62593).
T1 construct: made in house; host or cells: E. coli
Nature of the assay: β-lactamase inhibitory activity, determination of IC50 (nitrocefin hydrolysis). Type of assay: biochemical. The following applies: class (A), 30 min pre-incubation.

Assay [4] deals with AmpC (P99) (Enterobacter cloacae, UniProt P05364). The assay can be described thus: biochemical.
Assay [5] relates to K. pneumoniae 200047 (TEM-1, SHV-32, CTX-M-15, OXA-1). The assay can be described thus: microbe, parasite or virus in culture. It counts as cell-based. The following applies: for MIC: Klebsiella pneumoniae, 18 h, read-out: MIC compounds of the invention alone.
Assay [6] concerns E. cloacae 260508 (TEM-1, CTX-M-15). The assay can be described thus: microbe, parasite or virus in culture. Type of assay: cell-based. The note with it: for MIC: Enterobacter cloacae, read-out: MIC compounds of the invention alone; for MIC, combination of CAZ and compounds of the invention: MIC of ceftazidime with compound fixed at 4 μg/mL, strain 260508 (E. cloacae). Put shortly: (§1)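 Read-out is visual: the MIC is the lowest concentration at which no bacterial growth is seen. Plates held compounds spotted from DMSO solutions and were kept at 35° C in ambient air for 16-20 h.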

In assay [7] the test system is E. coli 190317 (TEM-1, SHV-12, CTX-M-15, OXA-1). The assay can be described thus: microbe, parasite or virus in culture. It counts as cell-based. The following applies: for MIC: Escherichia coli, 18 h, read-out: MIC compounds of the invention alone; for MIC, combination of CAZ and compounds of the invention: MIC of ceftazidime with compound fixed at 4 μg/mL, strain 190317 (E. coli). Put shortly: (§2)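 First, test compounds prepared in DMSO are spotted on sterile plates. Next, plates incubate at 35° C under ambient air for 16-20 h. Finally, wells are inspected by eye, and the lowest concentration without growth gives the MIC.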

Assay [8] has as its system K. pneumoniae 160143 (TEM-1, SHV-1, CTX-M-15, KPC-2, OXA-1). Nature of the assay: microbe, parasite or virus in culture. Type of assay: cell-based. The note with it: for MIC: Klebsiella pneumoniae, 18 h, read-out: MIC compounds of the invention alone. Put shortly:
as §1

Assay [9] concerns the target T2, OXA-15 (Pseudomonas aeruginosa, UniProt Q51574).
T2 construct: made in house; host or cells: E. coli
Nature of the assay: β-lactamase inhibitory activity, determination of IC50 (nitrocefin hydrolysis). Type of assay: biochemical.

For assay [10], the target named is T3, KPC-2 (Klebsiella pneumoniae, UniProt Q9F663).
T3 construct: made in house; host or cells: E. coli
The description is as above. Type of assay: biochemical.

In assay [11] the test system is E. cloacae UFR85 (TEM-1, CTX-M-15, derepressed ampC). The assay can be described thus: microbe, parasite or virus in culture. Type of assay: cell-based. The following applies: for MIC: Enterobacter cloacae, 18 h, read-out: MIC compounds of the invention alone. As for the experimental part:
[…] […] Microplates were incubated for 16-20 h at 35° C. in ambient air. The MIC of the compounds was defined as the lowest concentration of said compounds that prevented bacterial growth as read by visual inspection.

Assay [12] deals with T4, CTX-M-15 (Escherichia coli, UniProt Q9EXV5).
T4 construct: made in house; host or cells: E. coli
The assay can be described thus: β-lactamase inhibitory activity, determination of IC50 (nitrocefin hydrolysis). It counts as biochemical.

Assay [13] has as its target T5, OXA-11 (Pseudomonas aeruginosa, UniProt Q06778).
T5 construct: made in house; host or cells: E. coli
The description is as above. Type of assay: biochemical.

Assay [14] concerns the target T6, SHV-1 (Klebsiella pneumoniae, UniProt P0AD64).
T6 construct: made in house; host or cells: E. coli
The description is as above. It counts as biochemical.

For assay [15], the system named is K. pneumoniae UFR77 (CMY-2). The assay can be described thus: MIC of compounds and synergy with ceftazidime (broth microdilution). The following applies: strain UFR77 (K. pneumoniae); for MIC: Klebsiella pneumoniae, 18 h, read-out: MIC compounds of the invention alone; for MIC, combination of CAZ and compounds of the invention: MIC of ceftazidime with compound fixed at 4 μg/mL. Type of assay: cell-based. Put shortly: as §1
(Broth dilution looks for growth in wells or tubes with falling amounts of substance.)

Assay [16] concerns P. aeruginosa UFR92 (Derepressed ampC, OprD-). The assay is described as above. It counts as cell-based. The note with it: MIC of ceftazidime with compound fixed at 4 μg/mL; strain UFR92 (P. aeruginosa). Put shortly: as §2
The subject of assay [17] is P. aeruginosa UFR90 (Derepressed ampC, OprD-). Described as above. It counts as cell-based. Put shortly:
as §1

Assay [18] has as its system E. cloacae UFR38 (CTX-M-15, NDM-1). Described as above. Type of assay: cell-based. The note with it: strain UFR38 (E. cloacae); for MIC: Enterobacter cloacae, 18 h, read-out: MIC compounds of the invention alone; for MIC, combination of CAZ and compounds of the invention: MIC of ceftazidime with compound fixed at 4 μg/mL. Put shortly:
as §1

T2 sequence (Q51574 22-275): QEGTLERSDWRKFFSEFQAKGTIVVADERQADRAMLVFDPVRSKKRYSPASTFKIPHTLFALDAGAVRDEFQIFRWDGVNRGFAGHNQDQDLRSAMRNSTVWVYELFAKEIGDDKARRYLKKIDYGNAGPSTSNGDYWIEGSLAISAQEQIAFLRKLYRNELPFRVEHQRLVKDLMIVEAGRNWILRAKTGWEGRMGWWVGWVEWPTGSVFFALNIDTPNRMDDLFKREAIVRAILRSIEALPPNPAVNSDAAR
T3 sequence (Q9F663 25-293 limits assumed): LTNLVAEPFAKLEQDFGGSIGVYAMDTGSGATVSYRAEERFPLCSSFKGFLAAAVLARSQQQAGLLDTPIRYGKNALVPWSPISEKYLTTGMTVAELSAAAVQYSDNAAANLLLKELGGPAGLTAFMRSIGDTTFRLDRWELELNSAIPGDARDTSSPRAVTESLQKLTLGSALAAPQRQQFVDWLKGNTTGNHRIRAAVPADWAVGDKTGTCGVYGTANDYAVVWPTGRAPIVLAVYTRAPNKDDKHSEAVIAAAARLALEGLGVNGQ
T1 sequence (P62593 24-286 limits assumed): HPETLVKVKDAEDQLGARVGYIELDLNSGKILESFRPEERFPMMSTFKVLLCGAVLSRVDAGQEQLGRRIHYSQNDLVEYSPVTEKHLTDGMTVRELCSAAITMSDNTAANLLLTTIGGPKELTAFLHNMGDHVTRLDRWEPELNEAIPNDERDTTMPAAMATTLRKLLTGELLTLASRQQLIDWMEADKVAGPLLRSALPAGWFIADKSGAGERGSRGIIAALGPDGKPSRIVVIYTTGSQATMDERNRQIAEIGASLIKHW
Chain of AmpC (P99) (P05364 21-381): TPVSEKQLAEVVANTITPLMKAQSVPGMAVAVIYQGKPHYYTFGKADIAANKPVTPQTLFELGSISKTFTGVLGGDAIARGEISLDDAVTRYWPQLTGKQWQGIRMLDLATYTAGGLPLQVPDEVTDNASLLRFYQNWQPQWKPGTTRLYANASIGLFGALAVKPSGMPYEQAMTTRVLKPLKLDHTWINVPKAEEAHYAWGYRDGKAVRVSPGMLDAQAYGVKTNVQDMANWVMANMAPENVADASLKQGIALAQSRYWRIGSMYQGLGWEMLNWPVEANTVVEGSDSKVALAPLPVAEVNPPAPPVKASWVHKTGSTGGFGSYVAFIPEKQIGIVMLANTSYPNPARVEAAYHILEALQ
T4 sequence (Q9EXV5 entry or part of it): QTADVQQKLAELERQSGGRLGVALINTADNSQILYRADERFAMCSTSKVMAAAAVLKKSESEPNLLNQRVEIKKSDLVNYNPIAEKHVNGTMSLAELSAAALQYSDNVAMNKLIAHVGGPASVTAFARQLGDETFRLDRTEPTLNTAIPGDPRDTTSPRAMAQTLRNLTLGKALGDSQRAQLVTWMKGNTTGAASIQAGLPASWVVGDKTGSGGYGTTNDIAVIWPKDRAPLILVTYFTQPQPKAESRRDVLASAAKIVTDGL
T5 sequence (Q06778 21-266): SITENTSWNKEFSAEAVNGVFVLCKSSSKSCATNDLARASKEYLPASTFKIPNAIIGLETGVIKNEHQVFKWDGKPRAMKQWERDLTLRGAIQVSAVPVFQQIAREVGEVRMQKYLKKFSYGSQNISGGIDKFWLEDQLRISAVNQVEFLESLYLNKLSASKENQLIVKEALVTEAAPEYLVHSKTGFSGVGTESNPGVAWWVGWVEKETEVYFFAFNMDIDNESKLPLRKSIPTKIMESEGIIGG
T6 sequence (P0AD64 22-286): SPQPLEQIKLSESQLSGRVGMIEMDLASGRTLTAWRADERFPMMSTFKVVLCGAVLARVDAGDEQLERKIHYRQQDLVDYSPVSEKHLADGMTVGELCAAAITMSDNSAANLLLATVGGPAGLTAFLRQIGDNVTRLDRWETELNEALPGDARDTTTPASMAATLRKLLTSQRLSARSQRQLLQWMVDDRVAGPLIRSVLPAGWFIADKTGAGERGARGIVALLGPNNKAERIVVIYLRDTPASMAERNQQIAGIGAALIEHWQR

By IC50 is commonly meant the concentration at which inhibition is half-maximal. Consider `NC[C@@H]1C(c2nccs2)=C[C@@H]2CN1C(=O)N2OS(=O)(=O)[O-].O=C(O)C(F)(F)F.[Na+]` [Example 2, Sodium and 2,2,2-trifluoroacetate [(2S,5R)-2-(azaniumylmethyl)-7-oxo-3-thiazol-2-yl-1,6-diazabicyclo[3.2.1]oct-3-en-6-yl] sulfate], for which the MIC in [1] is 16 µg/mL; in assay [2] it was 16 µg/mL; in assay [5], 16 µg/mL; in [6], at most 0.016 µg/mL; in assay [7], at most 0.016 µg/mL; in assay [8], 8 µg/mL. Moreover, the MIC in [11] is 16 µg/mL; in [15], 32 µg/mL; in assay [17] (Pseudomonas aeruginosa, 18 h, read-out: MIC compounds of the invention alone) it was 1 µg/mL; in assay [18], 32 µg/mL. The IC50 in [3] was 1.7 nM; in assay [4], 3.2 nM; in assay [9], 0.84 nM; in assay [10], 3.9 nM; in [12] it was 0.76 nM; in [13], 6.8 nM. The midpoint of inhibition in assay [14], the IC50, lay at 0.74 nM. Besides, the “MIC, combination of CAZ and compounds of the invention” value (“MIC, combination” below) in assay [6] is below 0.25 µg/mL; in assay [7], below 0.25 µg/mL; in assay [15], 2 µg/mL; in [16], below 0.25 µg/mL; in assay [17] (MIC of ceftazidime with compound fixed at 4 μg/mL, strain UFR90 (P. aeruginosa)), below 0.25 µg/mL; in [18] it was below 0.25 µg/mL.
For the molecule `NC[C@@H]1C(c2ncco2)=C[C@@H]2CN1C(=O)N2OS(=O)(=O)[O-].O=C(O)C(F)(F)F.[Na+]` [Example 5, Sodium and 2,2,2-trifluoroacetate [(2S,5R)-2-(azaniumylmethyl)-7-oxo-3-oxazol-2-yl-1,6-diazabicyclo[3.2.1]oct-3-en-6-yl] sulfate], the MIC in assay [1] is 32 µg/mL; in [2], 32 µg/mL; in assay [5], 16 µg/mL; in assay [6], 8 µg/mL; in [7] it was at most 0.016 µg/mL; in assay [8], 32 µg/mL. For the same molecule, the MIC in assay [11] is 8 µg/mL; in assay [15], above 32 µg/mL; in assay [18] it was at most 0.016 µg/mL. Moreover, the “MIC, combination” value in [1] (MIC of ceftazidime with compound fixed at 4 μg/mL, strain UFR21 (K. oxytoca)) is below 0.25 µg/mL; in [2] (MIC of ceftazidime with compound fixed at 4 μg/mL, strain UFR68 (K. pneumoniae)), at most 0.25 µg/mL; in [5] (MIC of ceftazidime with compound fixed at 4 μg/mL, strain 200047 (K. pneumoniae)), below 0.25 µg/mL; in assay [6] it was below 0.25 µg/mL; in [7] it was below 0.25 µg/mL; in assay [8] (MIC of ceftazidime with compound fixed at 4 μg/mL, strain 160143 (K. pneumoniae)), below 0.25 µg/mL. Besides, the “MIC, combination” value in [11] (MIC of ceftazidime with compound fixed at 4 μg/mL, strain UFR85 (E. cloacae)) was below 0.25 µg/mL; in assay [15], below 0.25 µg/mL; in assay [18], below 0.25 µg/mL. Also, the IC50 in assay [3] amounted to 110 nM; in assay [4], 11000 nM; in assay [9], 8 nM; in assay [10] it was 1800 nM; in [12], 130 nM; in assay [13], 430 nM. The molecule also came in with an IC50 in assay [14] of 64 nM.

For the origin of these results see patent US10072006B2 (MUTABILIS, priority 2015, dated 2018).
